± gives the uncertainty stated by the source.
Experiment: xn = mol fraction of the nth substance listed
Conditions: 100 kPa

CCCCCCCC[n+]1ccccc1.[Br-] + CC(C)C[C@H](NC(=O)CN)C(=O)O + O
Conditions	electrical conductivity [S/m]
288.15 K, x2 = 0.0008948, x1 = 0.005958	1.18 ± 0.071
288.15 K, x2 = 0.0008949, x1 = 0.005845	1.16 ± 0.07
288.15 K, x2 = 0.0008952, x1 = 0.005555	1.12 ± 0.067
288.15 K, x2 = 0.0008955, x1 = 0.005223	1.08 ± 0.065
288.15 K, x2 = 0.0008958, x1 = 0.004874	1.04 ± 0.062
288.15 K, x2 = 0.0008961, x1 = 0.00451	0.998 ± 0.06
288.15 K, x2 = 0.0008965, x1 = 0.00409	0.947 ± 0.057
288.15 K, x2 = 0.0008969, x1 = 0.003625	0.867 ± 0.052
288.15 K, x2 = 0.0008973, x1 = 0.003174	0.789 ± 0.047
288.15 K, x2 = 0.0008978, x1 = 0.002616	0.679 ± 0.041
288.15 K, x2 = 0.0008984, x1 = 0.002001	0.558 ± 0.034
288.15 K, x2 = 0.0008987, x1 = 0.001608	0.469 ± 0.028
288.15 K, x2 = 0.0008991, x1 = 0.001214	0.381 ± 0.023
288.15 K, x2 = 0.0008996, x1 = 0.0007137	0.253 ± 0.015
288.15 K, x2 = 0.001788, x1 = 0.005808	1.12 ± 0.067
288.15 K, x2 = 0.001789, x1 = 0.005199	1.05 ± 0.063
288.15 K, x2 = 0.001789, x1 = 0.005515	1.09 ± 0.065
288.15 K, x2 = 0.00179, x1 = 0.004871	1.01 ± 0.061
288.15 K, x2 = 0.001791, x1 = 0.00409	0.911 ± 0.055
288.15 K, x2 = 0.001791, x1 = 0.004503	0.962 ± 0.058
288.15 K, x2 = 0.001792, x1 = 0.003639	0.855 ± 0.051
288.15 K, x2 = 0.001793, x1 = 0.003149	0.766 ± 0.046
288.15 K, x2 = 0.001794, x1 = 0.002603	0.666 ± 0.04
288.15 K, x2 = 0.001795, x1 = 0.002003	0.545 ± 0.033
288.15 K, x2 = 0.001796, x1 = 0.001632	0.462 ± 0.028
288.15 K, x2 = 0.001797, x1 = 0.0008258	0.273 ± 0.017
288.15 K, x2 = 0.001797, x1 = 0.001246	0.37 ± 0.022
293.15 K, x2 = 0.0008948, x1 = 0.005956	1.31 ± 0.079
293.15 K, x2 = 0.0008949, x1 = 0.005843	1.3 ± 0.078
293.15 K, x2 = 0.0008952, x1 = 0.005554	1.27 ± 0.076
293.15 K, x2 = 0.0008955, x1 = 0.005223	1.22 ± 0.073
293.15 K, x2 = 0.0008958, x1 = 0.004874	1.17 ± 0.07
293.15 K, x2 = 0.0008961, x1 = 0.004508	1.12 ± 0.067
293.15 K, x2 = 0.0008965, x1 = 0.004089	1.06 ± 0.064
293.15 K, x2 = 0.0008969, x1 = 0.003623	0.983 ± 0.059
293.15 K, x2 = 0.0008973, x1 = 0.003174	0.894 ± 0.054
293.15 K, x2 = 0.0008978, x1 = 0.002616	0.781 ± 0.047
293.15 K, x2 = 0.0008984, x1 = 0.002001	0.632 ± 0.038
293.15 K, x2 = 0.0008987, x1 = 0.001608	0.526 ± 0.032
293.15 K, x2 = 0.0008991, x1 = 0.001214	0.427 ± 0.026
293.15 K, x2 = 0.0008996, x1 = 0.0007137	0.283 ± 0.017
293.15 K, x2 = 0.001788, x1 = 0.005807	1.28 ± 0.077
293.15 K, x2 = 0.001789, x1 = 0.005198	1.19 ± 0.071
293.15 K, x2 = 0.001789, x1 = 0.005513	1.24 ± 0.074
293.15 K, x2 = 0.00179, x1 = 0.004869	1.14 ± 0.069
293.15 K, x2 = 0.001791, x1 = 0.00409	1.04 ± 0.062
293.15 K, x2 = 0.001791, x1 = 0.004503	1.1 ± 0.066
293.15 K, x2 = 0.001792, x1 = 0.003637	0.959 ± 0.058
293.15 K, x2 = 0.001793, x1 = 0.003149	0.869 ± 0.052
293.15 K, x2 = 0.001794, x1 = 0.002603	0.756 ± 0.045
293.15 K, x2 = 0.001795, x1 = 0.002003	0.615 ± 0.037
293.15 K, x2 = 0.001796, x1 = 0.001632	0.523 ± 0.031
293.15 K, x2 = 0.001797, x1 = 0.0008258	0.306 ± 0.018
293.15 K, x2 = 0.001797, x1 = 0.001246	0.419 ± 0.025
298.15 K, x2 = 0.0008948, x1 = 0.005954	1.49 ± 0.09
298.15 K, x2 = 0.0008949, x1 = 0.005843	1.48 ± 0.089
298.15 K, x2 = 0.0008952, x1 = 0.005554	1.44 ± 0.086
298.15 K, x2 = 0.0008955, x1 = 0.005221	1.38 ± 0.083
298.15 K, x2 = 0.0008958, x1 = 0.004872	1.34 ± 0.08
298.15 K, x2 = 0.0008961, x1 = 0.004508	1.29 ± 0.077
298.15 K, x2 = 0.0008965, x1 = 0.004089	1.21 ± 0.073
298.15 K, x2 = 0.0008969, x1 = 0.003623	1.12 ± 0.067
298.15 K, x2 = 0.0008973, x1 = 0.003174	1.02 ± 0.061
298.15 K, x2 = 0.0008978, x1 = 0.002616	0.883 ± 0.053
298.15 K, x2 = 0.0008984, x1 = 0.002001	0.72 ± 0.043
298.15 K, x2 = 0.0008987, x1 = 0.001608	0.604 ± 0.036
298.15 K, x2 = 0.0008991, x1 = 0.001214	0.48 ± 0.029
298.15 K, x2 = 0.0008996, x1 = 0.0007137	0.314 ± 0.019
298.15 K, x2 = 0.001788, x1 = 0.005807	1.46 ± 0.088
298.15 K, x2 = 0.001789, x1 = 0.005198	1.36 ± 0.082
298.15 K, x2 = 0.001789, x1 = 0.005513	1.41 ± 0.085
298.15 K, x2 = 0.00179, x1 = 0.004869	1.31 ± 0.079
298.15 K, x2 = 0.001791, x1 = 0.004088	1.17 ± 0.07
298.15 K, x2 = 0.001791, x1 = 0.004501	1.25 ± 0.075
298.15 K, x2 = 0.001792, x1 = 0.003637	1.09 ± 0.065
298.15 K, x2 = 0.001793, x1 = 0.003149	0.978 ± 0.059
298.15 K, x2 = 0.001794, x1 = 0.002603	0.849 ± 0.051
298.15 K, x2 = 0.001795, x1 = 0.002003	0.689 ± 0.041
298.15 K, x2 = 0.001796, x1 = 0.001632	0.585 ± 0.035
298.15 K, x2 = 0.001797, x1 = 0.0008258	0.341 ± 0.021
298.15 K, x2 = 0.001797, x1 = 0.001246	0.469 ± 0.028
303.15 K, x2 = 0.0008948, x1 = 0.005952	1.67 ± 0.1
303.15 K, x2 = 0.0008949, x1 = 0.005839	1.65 ± 0.099
303.15 K, x2 = 0.0008952, x1 = 0.00555	1.6 ± 0.096
303.15 K, x2 = 0.0008955, x1 = 0.005219	1.54 ± 0.093
303.15 K, x2 = 0.0008958, x1 = 0.00487	1.49 ± 0.089
303.15 K, x2 = 0.0008961, x1 = 0.004507	1.43 ± 0.086
303.15 K, x2 = 0.0008965, x1 = 0.004087	1.34 ± 0.08
303.15 K, x2 = 0.0008969, x1 = 0.003621	1.24 ± 0.074
303.15 K, x2 = 0.0008973, x1 = 0.003172	1.12 ± 0.067
303.15 K, x2 = 0.0008978, x1 = 0.002616	0.97 ± 0.058
303.15 K, x2 = 0.0008984, x1 = 0.001999	0.789 ± 0.047
303.15 K, x2 = 0.0008987, x1 = 0.001608	0.66 ± 0.04
303.15 K, x2 = 0.0008991, x1 = 0.001214	0.531 ± 0.032
303.15 K, x2 = 0.0008996, x1 = 0.0007137	0.347 ± 0.021
303.15 K, x2 = 0.001789, x1 = 0.005196	1.52 ± 0.091
303.15 K, x2 = 0.001789, x1 = 0.005509	1.58 ± 0.095
303.15 K, x2 = 0.00179, x1 = 0.004867	1.46 ± 0.088
303.15 K, x2 = 0.001791, x1 = 0.004088	1.31 ± 0.079
303.15 K, x2 = 0.001791, x1 = 0.004501	1.4 ± 0.084
303.15 K, x2 = 0.001792, x1 = 0.003637	1.21 ± 0.073
303.15 K, x2 = 0.001793, x1 = 0.003148	1.09 ± 0.065
303.15 K, x2 = 0.001794, x1 = 0.002601	0.944 ± 0.057
303.15 K, x2 = 0.001795, x1 = 0.002003	0.768 ± 0.046
303.15 K, x2 = 0.001796, x1 = 0.001632	0.65 ± 0.039
303.15 K, x2 = 0.001797, x1 = 0.0008258	0.377 ± 0.023
303.15 K, x2 = 0.001797, x1 = 0.001246	0.521 ± 0.031
308.15 K, x2 = 0.0008948, x1 = 0.005949	1.85 ± 0.11
308.15 K, x2 = 0.0008949, x1 = 0.005837	1.83 ± 0.11
308.15 K, x2 = 0.0008952, x1 = 0.005548	1.78 ± 0.11
308.15 K, x2 = 0.0008955, x1 = 0.005217	1.71 ± 0.1
308.15 K, x2 = 0.0008958, x1 = 0.004868	1.65 ± 0.099
308.15 K, x2 = 0.0008961, x1 = 0.004505	1.57 ± 0.094
308.15 K, x2 = 0.0008965, x1 = 0.004085	1.49 ± 0.089
308.15 K, x2 = 0.0008969, x1 = 0.003621	1.36 ± 0.082
308.15 K, x2 = 0.0008973, x1 = 0.003172	1.23 ± 0.074
308.15 K, x2 = 0.0008978, x1 = 0.002614	1.06 ± 0.064
308.15 K, x2 = 0.0008984, x1 = 0.001999	0.852 ± 0.051
308.15 K, x2 = 0.0008987, x1 = 0.001608	0.718 ± 0.043
308.15 K, x2 = 0.0008991, x1 = 0.001214	0.577 ± 0.035
308.15 K, x2 = 0.0008996, x1 = 0.0007137	0.379 ± 0.023
308.15 K, x2 = 0.001789, x1 = 0.005194	1.69 ± 0.1
308.15 K, x2 = 0.001789, x1 = 0.005508	1.75 ± 0.1
308.15 K, x2 = 0.00179, x1 = 0.004866	1.63 ± 0.098
308.15 K, x2 = 0.001791, x1 = 0.004086	1.46 ± 0.088
308.15 K, x2 = 0.001791, x1 = 0.004499	1.55 ± 0.093
308.15 K, x2 = 0.001792, x1 = 0.003635	1.33 ± 0.08
308.15 K, x2 = 0.001793, x1 = 0.003148	1.21 ± 0.072
308.15 K, x2 = 0.001794, x1 = 0.002601	1.04 ± 0.062
308.15 K, x2 = 0.001795, x1 = 0.002003	0.843 ± 0.051
308.15 K, x2 = 0.001796, x1 = 0.00163	0.713 ± 0.043
308.15 K, x2 = 0.001797, x1 = 0.0008258	0.415 ± 0.025
308.15 K, x2 = 0.001797, x1 = 0.001246	0.576 ± 0.035

CCCCCCCCCCCCOS(=O)(=O)[O-].[Na+] + CC(C)O + O
298 K, frequency 0.001 MHz
Conditions	electrical conductivity [S/m]
x2 = 0.04868, x3 = 0.9512	0.0308 ± 0.00058
x2 = 0.1358, x3 = 0.8641	0.0155 ± 0.00052

— the CheMixHub ionic liquid set
